Bounds are passed on as bounds.

The assay addresses T1, human HDAC8 (Homo sapiens, UniProt Q9BY41).
T1 construct: purchased Enzo Life Sciences BML-SE145-0100
T1 sequence (Q9BY41 1-377): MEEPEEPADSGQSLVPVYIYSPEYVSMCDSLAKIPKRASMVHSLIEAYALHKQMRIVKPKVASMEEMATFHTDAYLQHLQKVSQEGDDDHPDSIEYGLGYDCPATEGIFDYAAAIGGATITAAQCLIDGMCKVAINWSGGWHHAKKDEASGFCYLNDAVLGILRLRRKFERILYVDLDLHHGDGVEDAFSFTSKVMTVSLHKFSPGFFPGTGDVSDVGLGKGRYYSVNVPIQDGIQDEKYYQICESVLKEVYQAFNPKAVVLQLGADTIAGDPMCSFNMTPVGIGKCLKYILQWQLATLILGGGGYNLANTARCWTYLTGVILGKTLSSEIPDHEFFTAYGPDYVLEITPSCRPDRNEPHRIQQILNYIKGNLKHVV
Put plainly: Human HDAC enzyme inhibitor Fluor-de-Lys assay, HDAC8. The settings on record: 1.3 nM enzyme, 200 μM substrate BML-KI178, 3 h pre-incubation, 60 min reaction; read-out: HDAC8_IC50. The format is biochemical. The text has this:
Recombinant human HDAC8 (catalog number BML-SE145-0100) and HDAC10 (catalog number BML-SE559-0050) enzymes, HDAC substrates BML-KI104 and BML-KI178, and HDAC developer solutions BML-KI105 and BML-KI176 were purchased from Enzo Life Sciences (Farmingdale, NY). Recombinant human HDAC5 and HDAC11 were purchased from BPS Bioscience (San Diego, CA)(catalog numbers 50045 and 50021). Substrate Boc-Lys(TFA)-AMC was obtained from Bachem (Bupendorf, Switzerland) (catalog number 1-1985). HDAC inhibitor suberoylanilide hydroxamic acid (SAHA) was obtained from Indofine (Hillsborough Township, NJ) and trichostatin A (TSA) was obtained from Sigma-Aldrich (St. Louis, MO). […] HEPES pH 8.0 was obtained from Boston BioProducts (Ashland, MA), Tween-20 from Fisher Scientific (Hampton, NH)(catalog number BP337), TCEP from Calbiochem and 7.5% bovine serum albumin (BSA) from Life Technologies (Carlsbad, CA) (catalog number 15260037). 384-well, black assay plates were obtained from Corning (Corning, NY) (catalog number 3575).
The histone deacetylase activities of HDAC1, HDAC2, HDAC3, HDAC6, and HDAC8 were measured in modified Fluor-de-Lys assays in 384-well format. In this assay, HDAC enzymes are initially incubated with an ε-acetyl (or -trifluoroacetyl)-L-lysine-containing substrate with a C-terminal amide having aminomethylcoumarin as the amine component. HDACs cleave the ε-acetyl group, rendering the resulting product susceptible to AMC cleavage by trypsin. The released AMC is then detected by its fluorescence.
The HDAC 1, 2 assays employed buffer A, which contained 20 mM HEPES, pH 8.0, 1 mM MgCl2, 137 mM NaCl, 2.7 mM KCl, 0.05% BSA. The HDAC3/SMRT assay employed buffer B, consisting of 20 mM HEPES, pH 8.0, 1 mM MgCl2, 50 mM NaCl, 2.7 mM KCl, 0.05% BSA, 0.005% Tween 20, and 10 μM IP4. The HDAC6 assay employed buffer C, consisting of 20 mM HEPES, pH 8.0, 1 mM MgCl2, 137 mM NaCl, 2.7 mM KCl, 0.5 mM TCEP (Calbiochem) and 0.05% BSA. The HDAC8 assay employed buffer D, consisting of 20 mM HEPES, pH 8.0, 1 mM MgCl2, 100 mM NaCl, 20 mM KCl, 0.1% n-octyl-β-D-glucoside (Anatrace, Maumee, OH) and 0.05% BSA. All steps were performed at room temperature (23° C.). The assay was performed by pre-incubating serial dilutions of test compounds with the target HDAC prior to initiation with substrate. Each compound was titrated in a 10-point dose response, using a 1:3 fold dilution scheme, with 0.15 ul of solution added by ECHO555 to the plate, followed by the addition of 20 μl of the appropriate HDAC isoform diluted in appropriate assay buffer. […] Final conditions used for each assay were: 1. HDAC 1, 0.3 nM total enzyme, 20 μM substrate BML-K1104; 2. HDAC 2, 1.5 nM total enzyme, 40 μM substrate BML-K1104; 3. HDAC 3/SMRT, 0.3 nM total enzyme, 20 μM substrate BML-K1104; 4. HDAC 6, 1.3 nM total enzyme, 2.5 μM substrate BML-K1104; 5. HDAC 8, 1.3 nM total enzyme, 200 μM substrate BML-K1178; the final high dose of test compound was 30 μM. For potent compounds, 900 nM was used as the final high dose. The reactions were stopped and developed by addition of 30 ul of HDAC developer solution containing a saturating level of HDAC inhibitor as follows: 1.
`COc1nc2ccccc2cc1-c1cnc([C@H](COCCCC(=O)c2ccon2)NC(=O)CN(C)C)[nH]1` [Compound 14, N-{(1R)-2-(4-isoxazol-3-yl-4-oxobutoxy)-1-[5-(2-methoxyquinolin-3-yl)-1H-imidazol-2-yl]ethyl}-N~2~,N~2~- dimethylglycinamide]: the IC50 came to 1760 nM.

`COc1nc2ccccc2cc1-c1cnc([C@H](COCCCC(=O)c2ncco2)NC(=O)CN(C)C)[nH]1` [Compound 13, N-{(1R)-1-[5-(2-methoxyquinolin-3-yl)-1H-imidazol-2-yl]-2-[4-(1,3-oxazol-2-yl)-4-oxobutoxy]ethyl}-N~2~,N~2~- dimethylglycinamide]: the IC50 is 17000 nM.

As to `COc1nc2ccccc2cc1-c1cnc([C@H](COCCCC(=O)c2ncco2)NC(=O)C23CCN(CC2)CC3)[nH]1` [Compound 12, N-{(1R)-1-[5-(2-methoxyquinolin-3-yl)-1H-imidazol-2-yl]-2-[4-(1,3-oxazol-2-yl)-4-oxobutoxy]ethyl}-1-azabicyclo[2.2.2]octane-4-carboxamide], the IC50 turned out to be 5550 nM.

On to `COc1cc2nc(C)ccc2cc1-c1cnc([C@H](COCCCC(=O)c2cc(C)on2)NC(=O)C2CN(C)C2)[nH]1` [Compound 19, N-{(1R)-1-[5-(7-methoxy-2-methylquinolin-6-yl)-1H-imidazol-2-yl]-2-[4-(5-methylisoxazol-3-yl)-4-oxobutoxy]ethyl}-1-methylazetidine-3-carboxamide], for which the IC50 is more than 900 nM.

On to `CN1CC(C(=O)N[C@@H](COCCCC(=O)c2ccon2)c2ncc(-c3ccccc3F)[nH]2)C1` [Compound 15, N-[(1R)-1-[5-(2-fluorophenyl)-1H-imidazol-2-yl]-2-(4-isoxazol-3-yl-4-oxobutoxy)ethyl]-1-methylazetidine-3-carboxamide], for which the IC50 was more than 900 nM.

Regarding `CN1CC(C(=O)N[C@@H](COCCCC(=O)c2ccon2)c2[nH]c(-c3ccc(F)cc3)nc2Cl)C1` [Compound 16, N-[(1R)-1-[4-chloro-2-(4-fluorophenyl)-1H-imidazol-5-yl]-2-(4-isoxazol-3-yl-4-oxobutoxy)ethyl]-1-methylazetidine-3-carboxamide], the IC50 was more than 900 nM.

`COc1cc2nc(C)ccc2cc1-c1cnc([C@H](COCCCC(=O)c2cc(C)on2)NC(=O)[C@H]2CC23CCN(C)CC3)[nH]1` [Compound 20, (1S)-N-{(1R)-1-[5-(7-methoxy-2-methylquinolin-6-yl)-1H-imidazol-2-yl]-2-[4-(5-methylisoxazol-3-yl)-4-oxobutoxy]ethyl}-6-methyl-6-azaspiro[2.5]octane-1-carboxamide]: the IC50 was more than 900 nM.

For the compound `CCC(=O)CCCOC[C@H](NC(=O)c1cncs1)c1ncc(-c2cc3ccccc3nc2OC)[nH]1` [Compound 5, N-{(1R)-1-[5-(2-methoxyquinolin-3-yl)-1H-imidazol-2-yl]-2-[(4-oxohexyl)oxy]ethyl}-1,3-thiazole-5-carboxamide], the IC50 is 2720 nM.

For `CN1CCC2(CC1)C[C@@H]2C(=O)N[C@@H](COCCCC(=O)c1ccon1)c1[nH]c(-c2ccc(F)cc2)nc1Cl` [Compound 18, (1S)-N-[(1R)-1-[4-chloro-2-(4-fluorophenyl)-1H-imidazol-5-yl]-2-(4-isoxazol-3-yl-4-oxobutoxy)ethyl]-6-methyl-6-azaspiro[2.5]octane-1-carboxamide], the IC50 was more than 900 nM.

`Cc1ccc2cc(-c3cnc([C@H](CSCCCC(=O)c4ncco4)NC(=O)[C@H]4CC45CCN(C)CC5)[nH]3)ccc2n1` [Compound 21, (1S)-6-methyl-N-[(1R)-1-[5-(2-methylquinolin-6-yl)-1H-imidazol-2-yl]-2-{[4-(1,3-oxazol-2-yl)-4-oxobutyl]sulfanyl}ethyl]-6-azaspiro[2.5]octane-1-carboxamide]: the IC50 was 1050 nM.

With `CCC(=O)CCCOC[C@H](NC(=O)[C@H]1CC12CCN(CC)CC2)c1ncc(-c2cc3ccccc3nc2OC)[nH]1` [Compound 7, (1S)-6-ethyl-N-{(1R)-1-[5-(2-methoxyquinolin-3-yl)-1H-imidazol-2-yl]-2-[(4-oxohexyl)oxy]ethyl}-6-azaspiro[2.5]octane-1-carboxamide], the IC50 is more than 45000 nM.

With `N[C@@H](COCCCC(=O)c1ccon1)c1ncc(-c2ccccc2F)[nH]1` [Compound 2, (R)-4-(2-amino-2-(5-(2-fluorophenyl)-1H-imidazol-2-yl)ethoxy)-1-(isoxazol-3-yl)butan-1-one], the IC50 is more than 900 nM.

`CCC(=O)CCCOC[C@H](NC(=O)C12CCN(CC1)CC2)c1ncc(-c2cc3ccccc3nc2OC)[nH]1` [Compound 6, N-{(1R)-1-[5-(2-methoxyquinolin-3-yl)-1H-imidazol-2-yl]-2-[(4-oxohexyl)oxy]ethyl}-1-azabicyclo[2.2.2]octane-4-carboxamide]: the IC50 is more than 45000 nM.

As for `CN(C)CC(=O)N[C@@H](COCCCC(=O)c1ccon1)c1[nH]c(-c2ccc(F)cc2)nc1Cl` [Compound 17, N-[(1R)-1-[4-chloro-2-(4-fluorophenyl)-1H-imidazol-5-yl]-2-(4-isoxazol-3-yl-4-oxobutoxy)ethyl]-N~2~,N~2~- dimethylglycinamide], the IC50 was more than 900 nM.

Turning to `COc1nc2ccccc2cc1-c1cnc([C@H](COCCCC(=O)c2ncco2)NC(=O)c2cncs2)[nH]1` [Compound 10, N-{(1R)-1-[5-(2-methoxyquinolin-3-yl)-1H-imidazol-2-yl]-2-[4-(1,3-oxazol-2-yl)-4-oxobutoxy]ethyl}-1,3-thiazole-5-carboxamide], the IC50 is 1380 nM.

For the compound `CNC(=O)C(=O)CCCOC[C@H](NC(=O)C12CCN(CC1)CC2)c1ncc(-c2cc3ccccc3nc2OC)[nH]1` [Compound 9, N-[(1R)-1-[5-(2-methoxyquinolin-3-yl)-1H-imidazol-2-yl]-2-{[5-(methylamino)-4,5-dioxopentyl]oxy}ethyl]-1-azabicyclo[2.2.2]octane-4-carboxamide], the IC50 was 3370 nM.

With `CNC(=O)C(=O)CCCOC[C@H](NC(=O)c1cncs1)c1ncc(-c2cc3ccccc3nc2OC)[nH]1` [Compound 8, N-[(1R)-1-[5-(2-methoxyquinolin-3-yl)-1H-imidazol-2-yl]-2-{[5-(methylamino)-4,5-dioxopentyl]oxy}ethyl]-1,3-thiazole-5-carboxamide], the IC50 stood at 3860 nM.

For `COc1nc2ccccc2cc1-c1cnc([C@H](COCCCC(=O)c2ncco2)NC(=O)[C@H]2CC23CCN(C)CC3)[nH]1` [Compound 11, (1S)-N-{(1R)-1-[5-(2-methoxyquinolin-3-yl)-1H-imidazol-2-yl]-2-[4-(1,3-oxazol-2-yl)-4-oxobutoxy]ethyl}-6-methyl-6-azaspiro[2.5]octane-1-carboxamide], the IC50 was determined as 7780 nM.
